Experiments:
IRAK4 [1] = target: T1, IRAK4 (Homo sapiens, UniProt Q9NWZ3); assay: IRAK4 Degradation Assay with Human Serum (Karpas299, HTRF/TR-FRET); assay type: cell-based; conditions: Karpas-299 in human serum, 24 hrs treatment; for DC50: read-out: IRAK4 degradtion with human serum assay DC50; for Dmax: read-out: IRAK4 degradtion with human serum assay Dmax (%)
T1 construct: endogenous in cells; host or cells: Karpas299
T1 sequence (Q9NWZ3 1-460): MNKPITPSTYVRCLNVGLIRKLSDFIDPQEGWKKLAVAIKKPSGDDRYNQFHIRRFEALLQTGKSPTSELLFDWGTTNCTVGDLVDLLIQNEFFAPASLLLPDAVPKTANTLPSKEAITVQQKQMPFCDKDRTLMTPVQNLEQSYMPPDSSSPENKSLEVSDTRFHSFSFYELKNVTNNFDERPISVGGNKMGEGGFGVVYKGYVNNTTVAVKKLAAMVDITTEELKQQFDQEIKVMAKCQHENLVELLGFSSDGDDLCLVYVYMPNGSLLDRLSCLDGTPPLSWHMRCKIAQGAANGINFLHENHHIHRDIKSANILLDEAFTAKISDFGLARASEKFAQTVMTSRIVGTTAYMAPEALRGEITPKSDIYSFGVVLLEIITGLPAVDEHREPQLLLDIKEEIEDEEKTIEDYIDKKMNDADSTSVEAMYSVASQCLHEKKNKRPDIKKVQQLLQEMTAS
Procedure: IRAK4 degradation was measured using a TR-FRET-based method (Degorce, François, et al. Current chemical genomics. 2009, 3: 22). Karpas299 resuspended in Human serum AB (GEMINI, 100-512) were seeded into 96-well plates at the density of 0.2 million cells per well and then treated with a series dilution of compounds. After 24 hrs treatment, cells were pelleted via centrifugation and washed with PBS, add 40 μL lysis buffer (Cisbio) to each well after removal of the supernatant. Plates were then incubated at room temperature with shaking for 30 minutes. A total of 16 μL of cell lysates from each well of a 96-well plate was transferred to a 384-well white assay plate. IRAK4 level was quantitated using the HTRF kit as described by the manufacturer manual (Cisbio). FRET signals were measured using a PHERAstar FSX reader (BMG Labtech).
After treatment, add HTRF lysis buffer to each well; seal the plate and incubate 1 hour at room temperature on a plate shaker; Once the cells are lysed, 16 μL of cell lysate are transferred to a PE 384-well HTRF detection plate; 4 μL of pre-mixed HTRF antibodies are added to each well; Cover the plate with a plate sealer, spin 1000 rpm for 1 min, Incubate overnight at room temperature; Read on BMG PheraStar with HTRF protocol (337 nm-665 nm-620 nm).
The inhibition (degradation) percentage of the compound was calculated by the following equation: […]
The IC50 (DC50) value of a compound can be obtained by fitting the following equation
Wherein, X and Y are known values, and IC50, Hillslope, Top and Bottom are the parameters obtained by fitting with software. Y is the inhibition percentage (calculated from the equation), X is the concentration of the compound; IC50 is the concentration of the compound when the […] is reached. The smaller the IC50 value is, the stronger the inhibitory ability of the compound is. Vice versa, the higher the IC50 value is, the weaker the ability the inhibitory ability of the compound is; Hillslope represents the slope of the fitted curve, generally around 1 *; Bottom represents the minimum value of the curve obtained by data fitting, which is generally 0%±20%; Top represents the maximum value of the curve obtained by data fitting, which is generally 100%±20%. The experimental data were fitted by calculating and analyzing with Dotmatics data analysis software.

IRAK4 [2] = target: T1, IRAK4; assay: IRAK4 Degradation Assay (Karpas299, HTRF/TR-FRET); assay type: cell-based; conditions: Karpas-299 cells; for Dmax: maximum percentage of degradation
In short: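 Compound potency as DC50 (IC50) came from four-parameter fits of percent IRAK4 degradation. IRAK4 was measured by HTRF (665/620 nm) in lysates of Karpas299 cells seeded at 0.2 million per well. Cells had been treated with compound dilutions for 5 or 24 h.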

[3] = 24 h treatment, read-out: IRAK4 in Karpas-299 (24 h) Dmax (%)
[4] = 24 h treatment, read-out: IRAK4 in Karpas-299 (24 h) DC50
[5] = 5 h treatment, read-out: IRAK4 in Karpas-299 (5 h) Dmax (%)
[6] = 5 h treatment, read-out: IRAK4 in Karpas-299 (5 h) DC50

| DC50 (IRAK4 [1]) [nM] | Dmax (IRAK4 [1]) [%] | Dmax (IRAK4 [2]; [3]) [%] | DC50 (IRAK4 [2]; [4]) [nM] | Dmax (IRAK4 [2]; [5]) [%] | DC50 (IRAK4 [2]; [6]) [nM] | SMILES |
| --- | --- | --- | --- | --- | --- | --- |
| 40 | 95 | 94 | 3.6 | – | – | COc1cc(N2CC[C@@H](C(=O)N3CCN([C@H]4CC[C@H](n5cc6cc(NC(=O)c7ccc8cc(C#N)cnn78)c(C(C)(C)O)cc6n5)CC4)CC3)C2)cc(F)c1N1CCC(=O)NC1=O [Example 212, 3-cyano-N-(2-((1R,4r)-4-(4-((R)-1-(4-(2,4-dioxotetrahydropyrimidin-1(2H)-yl)-3-fluoro-5-methoxyphenyl)pyrrolidine-3-carbonyl)piperazin-1-yl)cyclohexyl)-6-(2-hydroxypropan-2-yl)-2H-indazol-5-yl)pyrrolo[1,2-b]pyridazine-7-carboxamide] |
| 25 | 98 | 96 | 4.4 | 97 | 6.7 | CC(C)(O)c1cc2nn([C@H]3CC[C@H](N4CCN(C5CCN(c6ccc(C7CCC(=O)NC7=O)nc6)CC5)CC4)CC3)cc2cc1NC(=O)c1ccc2cc(C#N)cnn12 (stereo partly shown) [Example 254, 3-cyano-N-(2-((1r,4r)-4-(4-(1-(6-(2,6-dioxopiperidin-3-yl)pyridin-3-yl)piperidin-4-yl)piperazin-1-yl)cyclohexyl)-6-(2-hydroxypropan-2-yl)-2H-indazol-5-yl)pyrrolo[1,2-b]pyridazine-7-carboxamide] |
| 7.8 | 96 | 97 | 1.2 | 96 | 2.7 | CC(C)(O)c1cc2nn([C@H]3CC[C@H](N4CCN(C(=O)C5CN(c6ccc(C7CCC(=O)NC7=O)nc6)C5)CC4)CC3)cc2cc1NC(=O)c1ccc2cc(C#N)cnn12 (stereo partly shown) [Example 255, 3-cyano-N-(2-((1r,4r)-4-(4-(1-(6-(2,6-dioxopiperidin-3-yl)pyridin-3-yl)azetidine-3-carbonyl)piperazin-1-yl)cyclohexyl)-6-(2-hydroxypropan-2-yl)-2H-indazol-5-yl)pyrrolo[1,2-b]pyridazine-7-carboxamide] |
| 28 | 97 | 97 | 1.7 | – | – | CCc1cc(N2CC(C(=O)N3CCN([C@H]4CC[C@H](n5cc6cc(NC(=O)c7ccc8cc(C#N)cnn78)c(C(C)(C)O)cc6n5)CC4)CC3)C2)ccc1N1CCC(=O)NC1=O [Example 257, 3-cyano-N-(2-((1r,4r)-4-(4-(1-(4-(2,4-dioxotetrahydropyrimidin-1(2H)-yl)-3-ethylphenyl)azetidine-3-carbonyl)piperazin-1-yl)cyclohexyl)-6-(2-hydroxypropan-2-yl)-2H-indazol-5-yl)pyrrolo[1,2-b]pyridazine-7-carboxamide] |
| 21 | 97 | 96 | 2.6 | – | – | COc1cc(N2CC(C(=O)N3CCN([C@H]4CC[C@H](n5cc6cc(NC(=O)c7ccc8cc(C#N)cnn78)c(C(C)(C)O)cc6n5)CC4)CC3)C2)c(F)cc1N1CCC(=O)NC1=O [Example 258, 3-cyano-N-(2-((1r,4r)-4-(4-(1-(4-(2,4-dioxotetrahydropyrimidin-1(2H)-yl)-2-fluoro-5-methoxyphenyl)azetidine-3-carbonyl)piperazin-1-yl)cyclohexyl)-6-(2-hydroxypropan-2-yl)-2H-indazol-5-yl)pyrrolo[1,2-b]pyridazine-7-carboxamide] |
| 15 | 99 | 96 | 2.6 | – | – | CC(C)(O)c1cc2nn([C@H]3CC[C@H](N4CCN(C(=O)[C@@H]5CCN(c6ccc(N7CCC(=O)NC7=O)cc6)C5)CC4)CC3)cc2cc1NC(=O)c1ccc2cc(C#N)cnn12 [Example 263, 3-cyano-N-(2-((1R,4r)-4-(4-((R)-1-(4-(2,4-dioxotetrahydropyrimidin-1(2H)-yl)phenyl)pyrrolidine-3-carbonyl)piperazin-1-yl)cyclohexyl)-6-(2-hydroxypropan-2-yl)-2H-indazol-5-yl)pyrrolo[1,2-b]pyridazine-7-carboxamide] |
| 21 | 99 | 97 | 2.6 | – | – | CC(C)(O)c1cc2nn([C@H]3CC[C@H](N4CCN(C(=O)C5CN(c6ccc(N7CCC(=O)NC7=O)cc6)C5)CC4)CC3)cc2cc1NC(=O)c1ccc2cc(C#N)cnn12 [Example 265, 3-cyano-N-(2-((1r,4r)-4-(4-(1-(4-(2,4-dioxotetrahydropyrimidin-1(2H)-yl)phenyl)azetidine-3-carbonyl)piperazin-1-yl)cyclohexyl)-6-(2-hydroxypropan-2-yl)-2H-indazol-5-yl)pyrrolo[1,2-b]pyridazine-7-carboxamide] |
| 11 | 101 | 94 | 4 | – | – | CC(C)(O)c1cc2nn([C@H]3CC[C@H](N4CCN([C@H]5C[C@@H](c6ccc(N[C@@H]7CCC(=O)NC7=O)cc6)C5)CC4)CC3)cc2cc1NC(=O)c1ccc2cc(C#N)cnn12 [Example 271, 3-cyano-N-(2-((1R,4r)-4-(4-((1S,3S)-3-(4-(((R)-2,6-dioxopiperidin-3-yl)amino)phenyl)cyclobutyl)piperazin-1-yl)cyclohexyl)-6-(2-hydroxypropan-2-yl)-2H-indazol-5-yl)pyrrolo[1,2-b]pyridazine-7-carboxamide] |
| 19 | 94 | 96 | 6.7 | – | – | CC(C)(O)c1cc2nn([C@H]3CC[C@H](N4CCN([C@H]5C[C@H](c6ccc(N[C@@H]7CCC(=O)NC7=O)cc6)C5)CC4)CC3)cc2cc1NC(=O)c1ccc2cc(C#N)cnn12 [Example 272, 3-cyano-N-(2-((1R,4r)-4-(4-((1R,3R)-3-(4-(((R)-2,6-dioxopiperidin-3-yl)amino)phenyl)cyclobutyl)piperazin-1-yl)cyclohexyl)-6-(2-hydroxypropan-2-yl)-2H-indazol-5-yl)pyrrolo[1,2-b]pyridazine-7-carboxamide] |
| 9.3 | 98 | 95 | 5 | – | – | CC(C)(O)c1cc2nn([C@H]3CC[C@H](N4CCN([C@H]5C[C@@H](c6ccc(N[C@H]7CCC(=O)NC7=O)cc6)C5)CC4)CC3)cc2cc1NC(=O)c1ccc2cc(C#N)cnn12 [Example 273, 3-cyano-N-(2-((1R,4r)-4-(4-((1R,3S)-3-(4-(((S)-2,6-dioxopiperidin-3-yl)amino)phenyl)cyclobutyl)piperazin-1-yl)cyclohexyl)-6-(2-hydroxypropan-2-yl)-2H-indazol-5-yl)pyrrolo[12-b]pyridazine-7-carboxamide] |
| 19 | 98 | 98 | 1.3 | – | – | Cc1cc(N2CCC(N3CCN([C@H]4CC[C@H](n5cc6cc(NC(=O)c7ccc8cc(C#N)cnn78)c(C(C)(C)O)cc6n5)CC4)CC3)CC2)cc(C)c1[C@H]1CCC(=O)NC1=O [Example 289, 3-cyano-N-(2-((1r,4r)-4-(4-(1-(4-((R)-2,6-dioxopiperidin-3-yl)-3,5-dimethylphenyl)piperidin-4-yl)piperazin-1-yl)cyclohexyl)-6-(2-hydroxypropan-2-yl)-2H-indazol-5-yl)pyrrolo[1,2-b]pyridazine-7-carboxamide] |
| 48 | 97 | 97 | 0.6 | – | – | CC(C)(O)c1cc2nn([C@H]3CC[C@H](N4CCN(C(=O)C5CCN(c6cc(F)c([C@H]7CCC(=O)NC7=O)c(F)c6)CC5)CC4)CC3)cc2cc1NC(=O)c1ccc2cc(C#N)cnn12 [Example 291] |

From patent US20250195513A1, “DEGRADATION OF IRAK4 BY CONJUGATION OF IRAK4 INHIBITORS WITH E3 LIGASE LIGAND AND METHODS OF USE” (BeiGene, Ltd., priority 2022, published 2025)
